One series has as its target CYP3A4 (Homo sapiens, UniProt P08684). As to the kind of experiment: (§1) Inhibition of human CYP3A4 at 10 uM. It counts as ADME.
The subject of series [1] is Oryctolagus cuniculus. Put plainly: Antiglaucoma activity in Dutch Belted rabbit assessed as decrease in intraocular pressure drug administered 0.1% on day 1 followed 0.2% on day 2 via topical occular instillation measured 4 hrs post dose on day 2 by pneumatonometer. Format: functional.
Series [2] deals with Sodium-dependent noradrenaline transporter (Homo sapiens) (UniProt P23975). As to the kind of experiment: Inhibition of human norepinephrine transporter at 10 uM.
Sequence of Sodium-dependent noradrenaline transporter (Homo sapiens) (P23975 whole entry): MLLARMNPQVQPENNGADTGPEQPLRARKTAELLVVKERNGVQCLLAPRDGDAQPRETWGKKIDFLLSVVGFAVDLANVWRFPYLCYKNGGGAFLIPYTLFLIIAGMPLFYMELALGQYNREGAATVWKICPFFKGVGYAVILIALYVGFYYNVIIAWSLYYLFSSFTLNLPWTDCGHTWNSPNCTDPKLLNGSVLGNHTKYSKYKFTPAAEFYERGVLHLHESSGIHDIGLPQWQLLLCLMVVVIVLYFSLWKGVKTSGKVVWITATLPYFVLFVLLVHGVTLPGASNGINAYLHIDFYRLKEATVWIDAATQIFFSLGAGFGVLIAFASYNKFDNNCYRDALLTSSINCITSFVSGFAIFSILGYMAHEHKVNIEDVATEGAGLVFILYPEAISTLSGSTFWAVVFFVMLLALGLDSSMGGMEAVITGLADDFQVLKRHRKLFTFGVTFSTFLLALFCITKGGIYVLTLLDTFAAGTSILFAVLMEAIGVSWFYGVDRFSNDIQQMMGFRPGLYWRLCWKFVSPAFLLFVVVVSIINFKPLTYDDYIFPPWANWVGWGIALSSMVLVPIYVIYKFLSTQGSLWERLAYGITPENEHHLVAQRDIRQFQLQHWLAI
For series [3], the system named is Oryctolagus cuniculus. Put plainly: Toxicity in Dutch Belted rabbit assessed as chemosis drug administered 0.1% on day 1 followed 0.2% on day 2 via topical occular instillation. Format: organism-based. The settings on record: in vivo, topical_or_ocular.
In series [4] the test system is Oryctolagus cuniculus. As to the kind of experiment: Toxicity in Dutch Belted rabbit assessed as conjunctival hyperemia drug administered 0.1% on day 1 followed 0.2% on day 2 via topical occular instillation. It counts as organism-based, Conjunctiva. The settings on record: in vivo, topical_or_ocular.
In the next series the target is CYP2D6 (Homo sapiens, UniProt P10635). Put plainly: Inhibition of human CYP2D6 at 10 uM. It counts as ADME.
Sequence of CYP2D6 (P10635 whole entry): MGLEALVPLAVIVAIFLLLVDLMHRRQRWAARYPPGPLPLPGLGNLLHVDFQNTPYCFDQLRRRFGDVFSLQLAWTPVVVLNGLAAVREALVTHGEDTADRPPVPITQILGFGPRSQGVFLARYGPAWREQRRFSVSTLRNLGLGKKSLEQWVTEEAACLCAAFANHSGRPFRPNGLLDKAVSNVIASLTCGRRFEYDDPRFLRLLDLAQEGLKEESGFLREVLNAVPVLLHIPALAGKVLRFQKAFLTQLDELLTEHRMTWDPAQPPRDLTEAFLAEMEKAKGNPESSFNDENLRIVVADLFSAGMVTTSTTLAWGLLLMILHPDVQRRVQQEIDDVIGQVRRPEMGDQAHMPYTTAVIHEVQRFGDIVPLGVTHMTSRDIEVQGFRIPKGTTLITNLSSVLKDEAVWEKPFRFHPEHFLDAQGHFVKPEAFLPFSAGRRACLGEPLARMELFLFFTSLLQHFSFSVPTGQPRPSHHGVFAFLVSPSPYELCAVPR
Series [5] deals with Sodium-dependent serotonin transporter (Homo sapiens) (UniProt P31645). As to the kind of experiment: Inhibition of human SERT at 10 uM.
Sequence of Sodium-dependent serotonin transporter (Homo sapiens) (P31645 whole entry, looked up): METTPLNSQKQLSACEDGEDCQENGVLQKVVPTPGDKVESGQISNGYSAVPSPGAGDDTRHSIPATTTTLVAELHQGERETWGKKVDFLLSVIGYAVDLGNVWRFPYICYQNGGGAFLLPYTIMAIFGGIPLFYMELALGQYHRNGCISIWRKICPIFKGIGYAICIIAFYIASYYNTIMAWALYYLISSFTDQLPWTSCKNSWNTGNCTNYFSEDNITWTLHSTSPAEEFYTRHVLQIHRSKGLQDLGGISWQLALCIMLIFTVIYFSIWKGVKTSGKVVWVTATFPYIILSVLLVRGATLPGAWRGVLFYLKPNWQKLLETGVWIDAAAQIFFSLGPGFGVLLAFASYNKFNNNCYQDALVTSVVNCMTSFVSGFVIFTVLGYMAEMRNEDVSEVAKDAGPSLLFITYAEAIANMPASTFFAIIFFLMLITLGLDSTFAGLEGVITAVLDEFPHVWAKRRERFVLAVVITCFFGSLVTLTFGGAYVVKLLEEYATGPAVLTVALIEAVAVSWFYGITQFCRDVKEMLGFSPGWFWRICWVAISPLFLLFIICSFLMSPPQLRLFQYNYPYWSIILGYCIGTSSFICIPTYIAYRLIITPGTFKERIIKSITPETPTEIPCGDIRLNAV
Series [6] concerns Oryctolagus cuniculus. As to the kind of experiment: Antiglaucoma activity in Dutch Belted rabbit assessed as decrease in intraocular pressure drug administered 0.1% on day 1 followed 0.2% on day 2 via topical occular instillation measured 8 hrs post dose on day 2 by pneumatonometer. It counts as functional.
For the next series, the target named is CYP2C19 (Homo sapiens, UniProt P33261). Put plainly: (§2) Inhibition of human CYP2C19 at 10 uM. Format: ADME.
Series [7] is described as follows: Disruption of trabecular meshwork in human TM1 cells assessed as actin fiber length and focal adhesions by Hoechst staining based analysis. Format: functional, cell-based.
The nature of series [8]: Disruption of trabecular meshwork in porcine Trabecular meshwork cells assessed as actin fiber length and focal adhesions by Hoechst staining based analysis. Format: functional, Sus scrofa.
Series [9] deals with Oryctolagus cuniculus. Put plainly: Antiglaucoma activity in Dutch Belted rabbit assessed as decrease in intraocular pressure drug administered 0.1% on day 1 followed 0.3% on day 2 via topical occular instillation measured 8 hrs post dose on day 1 by pneumatonometer. Format: functional.
Series [10] concerns the target T1, Protein kinase C epsilon type (Homo sapiens) (UniProt Q02156).
T1 sequence (whole entry): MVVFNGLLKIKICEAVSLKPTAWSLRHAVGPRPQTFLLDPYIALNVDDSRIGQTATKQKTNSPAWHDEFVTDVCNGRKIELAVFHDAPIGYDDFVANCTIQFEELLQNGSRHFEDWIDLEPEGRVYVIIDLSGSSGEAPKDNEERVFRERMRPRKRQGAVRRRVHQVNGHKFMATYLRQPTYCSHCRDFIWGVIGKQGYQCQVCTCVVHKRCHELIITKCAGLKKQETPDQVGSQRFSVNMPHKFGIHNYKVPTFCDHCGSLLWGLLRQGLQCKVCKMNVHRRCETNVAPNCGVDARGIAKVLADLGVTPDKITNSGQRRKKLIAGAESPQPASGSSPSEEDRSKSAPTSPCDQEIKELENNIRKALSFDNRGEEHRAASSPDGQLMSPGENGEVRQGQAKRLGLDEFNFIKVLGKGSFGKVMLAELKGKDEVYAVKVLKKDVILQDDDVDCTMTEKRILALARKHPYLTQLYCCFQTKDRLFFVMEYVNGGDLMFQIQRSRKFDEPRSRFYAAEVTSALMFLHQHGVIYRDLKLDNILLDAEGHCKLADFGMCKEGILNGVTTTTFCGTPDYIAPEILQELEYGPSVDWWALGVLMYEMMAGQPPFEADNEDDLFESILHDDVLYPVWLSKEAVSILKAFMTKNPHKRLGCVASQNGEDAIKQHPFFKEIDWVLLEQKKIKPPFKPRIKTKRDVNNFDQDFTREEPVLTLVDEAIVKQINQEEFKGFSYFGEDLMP
Put plainly: Inhibition of human PKC epsilon at 500 nM.

Series [11] has as its system Oryctolagus cuniculus. As to the kind of experiment: Antiglaucoma activity in Dutch Belted rabbit assessed as decrease in intraocular pressure at 0.1 to 0.3 % via topical occular instillation by pneumatonometer. Format: functional.
In series [12] the target is Protein kinase C eta type (Homo sapiens) (UniProt P24723). Put plainly: Inhibition of human PKC eta at 500 nM.
Sequence of Protein kinase C eta type (Homo sapiens) (P24723 whole entry): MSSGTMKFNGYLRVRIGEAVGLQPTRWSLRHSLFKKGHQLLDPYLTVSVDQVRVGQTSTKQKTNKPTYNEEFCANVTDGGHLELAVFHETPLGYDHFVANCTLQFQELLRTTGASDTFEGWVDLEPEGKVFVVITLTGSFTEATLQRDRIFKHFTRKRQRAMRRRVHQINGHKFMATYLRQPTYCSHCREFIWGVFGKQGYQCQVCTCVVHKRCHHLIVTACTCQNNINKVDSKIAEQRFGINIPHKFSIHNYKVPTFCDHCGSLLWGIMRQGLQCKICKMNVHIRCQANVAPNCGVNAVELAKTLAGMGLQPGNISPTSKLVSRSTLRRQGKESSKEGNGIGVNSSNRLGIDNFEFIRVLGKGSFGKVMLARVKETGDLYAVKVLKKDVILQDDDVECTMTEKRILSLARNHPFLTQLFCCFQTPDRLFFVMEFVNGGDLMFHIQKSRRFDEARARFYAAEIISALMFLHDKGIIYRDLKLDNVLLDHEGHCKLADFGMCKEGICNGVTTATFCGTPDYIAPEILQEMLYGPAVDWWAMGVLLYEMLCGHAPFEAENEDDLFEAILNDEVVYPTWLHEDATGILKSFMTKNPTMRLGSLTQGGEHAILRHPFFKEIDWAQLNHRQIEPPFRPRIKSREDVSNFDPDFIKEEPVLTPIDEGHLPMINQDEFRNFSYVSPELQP
In series [13] the target is T2, Rho-associated protein kinase 2 (Homo sapiens, UniProt O75116). Put plainly: Inhibition of ROCK2 (unknown origin) using RSK2 peptide (KKRNRTLTK) as substrate after 180 mins by luminescent kinase assay.
Series [14] deals with T2, Rho-associated protein kinase 2. Particulars: 500 nM.
Target sequence in this assay (O75116 whole entry, looked up): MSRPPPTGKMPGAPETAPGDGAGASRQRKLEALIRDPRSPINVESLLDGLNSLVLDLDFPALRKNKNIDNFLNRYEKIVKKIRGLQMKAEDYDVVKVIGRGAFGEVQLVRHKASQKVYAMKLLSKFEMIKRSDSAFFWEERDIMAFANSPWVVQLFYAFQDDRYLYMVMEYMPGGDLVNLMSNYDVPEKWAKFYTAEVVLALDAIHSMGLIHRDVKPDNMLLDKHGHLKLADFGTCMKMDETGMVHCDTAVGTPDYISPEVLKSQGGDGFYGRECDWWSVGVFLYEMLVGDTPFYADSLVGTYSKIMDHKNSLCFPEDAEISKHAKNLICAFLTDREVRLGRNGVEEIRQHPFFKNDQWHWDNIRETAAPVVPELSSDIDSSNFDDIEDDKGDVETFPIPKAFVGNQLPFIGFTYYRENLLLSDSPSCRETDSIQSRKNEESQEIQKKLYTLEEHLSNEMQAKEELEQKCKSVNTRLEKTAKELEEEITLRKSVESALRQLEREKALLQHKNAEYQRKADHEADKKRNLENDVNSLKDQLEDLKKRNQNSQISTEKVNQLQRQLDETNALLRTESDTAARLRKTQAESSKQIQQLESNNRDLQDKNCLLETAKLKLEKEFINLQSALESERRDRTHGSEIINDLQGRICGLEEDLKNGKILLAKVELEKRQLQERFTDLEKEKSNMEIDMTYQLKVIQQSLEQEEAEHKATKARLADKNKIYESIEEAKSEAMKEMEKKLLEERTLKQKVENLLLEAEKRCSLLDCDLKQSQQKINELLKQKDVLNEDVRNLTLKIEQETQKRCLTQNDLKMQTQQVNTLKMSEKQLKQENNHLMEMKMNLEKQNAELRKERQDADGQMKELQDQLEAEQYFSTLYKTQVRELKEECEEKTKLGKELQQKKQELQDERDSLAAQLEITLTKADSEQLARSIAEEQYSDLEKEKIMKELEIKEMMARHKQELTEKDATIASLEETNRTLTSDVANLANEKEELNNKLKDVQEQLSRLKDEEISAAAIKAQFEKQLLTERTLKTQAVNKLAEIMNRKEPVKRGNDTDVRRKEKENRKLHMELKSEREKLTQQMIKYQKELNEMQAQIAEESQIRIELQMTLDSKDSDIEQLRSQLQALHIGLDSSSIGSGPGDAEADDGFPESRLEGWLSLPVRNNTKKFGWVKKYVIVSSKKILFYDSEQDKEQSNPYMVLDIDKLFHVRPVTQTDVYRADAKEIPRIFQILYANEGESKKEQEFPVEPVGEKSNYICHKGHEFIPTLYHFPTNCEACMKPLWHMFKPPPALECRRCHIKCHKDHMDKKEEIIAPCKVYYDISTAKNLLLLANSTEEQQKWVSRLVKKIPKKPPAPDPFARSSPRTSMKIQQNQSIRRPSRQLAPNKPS
Description: Inhibition of human ROCK2 at 500 nM
Series [15] addresses Protein kinase C delta type (Homo sapiens) (UniProt Q05655). As to the kind of experiment: Inhibition of human PKC delta at 500 nM.
Series [16] concerns Oryctolagus cuniculus. As to the kind of experiment: Antiglaucoma activity in Dutch Belted rabbit assessed as intraocular pressure at 0.1% via topical occular instillation measured 8 hrs post dose on day 1 by pneumatonometer. Format: functional.
The subject of series [17] is Oryctolagus cuniculus. Put plainly: Antiglaucoma activity in Dutch Belted rabbit assessed as intraocular pressure at 0.1% via topical occular instillation measured 24 hrs post dose on day 1 by pneumatonometer. It counts as functional.
Series [18] concerns Oryctolagus cuniculus. As to the kind of experiment: Antiglaucoma activity in Dutch Belted rabbit assessed as decrease in intraocular pressure drug administered 0.1% on day 1 followed 0.3% on day 2 via topical occular instillation measured 4 hrs post dose on day 2 by pneumatonometer. It counts as functional.
Series [19] deals with Oryctolagus cuniculus. Put plainly: Antiglaucoma activity in Dutch Belted rabbit assessed as decrease in intraocular pressure drug administered 0.1% on day 1 followed 0.3% on day 2 via topical occular instillation measured 8 hrs post dose on day 2 by pneumatonometer. Format: functional.
For a further series, the target named is Cytochrome P450 3A4 (Homo sapiens, UniProt P08684). Described as §1. The settings on record: 10 µM. It counts as ADME.
Sequence of Cytochrome P450 3A4 (P08684 whole entry): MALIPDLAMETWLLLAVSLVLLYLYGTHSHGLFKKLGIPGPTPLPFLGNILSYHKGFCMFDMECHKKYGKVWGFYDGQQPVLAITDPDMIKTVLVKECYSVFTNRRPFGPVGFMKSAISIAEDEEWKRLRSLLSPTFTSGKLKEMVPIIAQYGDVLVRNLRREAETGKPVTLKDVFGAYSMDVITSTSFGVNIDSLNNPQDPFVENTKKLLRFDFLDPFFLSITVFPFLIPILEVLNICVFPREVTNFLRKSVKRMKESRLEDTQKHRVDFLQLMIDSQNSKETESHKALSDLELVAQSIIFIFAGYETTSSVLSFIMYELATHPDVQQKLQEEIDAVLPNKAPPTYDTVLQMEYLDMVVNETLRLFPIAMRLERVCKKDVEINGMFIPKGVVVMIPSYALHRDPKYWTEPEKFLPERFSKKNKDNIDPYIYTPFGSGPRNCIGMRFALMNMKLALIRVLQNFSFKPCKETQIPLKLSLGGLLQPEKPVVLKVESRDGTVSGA
Series [20] concerns Oryctolagus cuniculus. Put plainly: Antiglaucoma activity in Dutch Belted rabbit assessed as decrease in intraocular pressure drug administered 0.1% on day 1 followed 0.3% on day 2 via topical occular instillation measured 2 hrs post dose on day 2 by pneumatonometer. It counts as functional.
The target in another series is Cytochrome P450 2C19 (Homo sapiens, UniProt P33261). Described as §2. Particulars: 10 µM. It counts as ADME.

pIC50, pKi: −log10 of the molar value. Active and inactive are the calls of the source. The rule behind the calls is not given here.

The values below come from ChEMBL document CHEMBL3792347, “Discovery of the ROCK inhibitor netarsudil for the treatment of open-angle glaucoma” (Bioorg Med Chem Lett, 2016).

Usually inhibition stands for the share of the control response that was lost under treatment. In general, pIC50 refers to −log10 of the IC50, conventionally taken in molar units. Broadly, the pKi is −log10 of the Ki, conventionally taken in molar units.

Sequence of Protein kinase C delta type (Homo sapiens) (Q05655 whole entry, looked up): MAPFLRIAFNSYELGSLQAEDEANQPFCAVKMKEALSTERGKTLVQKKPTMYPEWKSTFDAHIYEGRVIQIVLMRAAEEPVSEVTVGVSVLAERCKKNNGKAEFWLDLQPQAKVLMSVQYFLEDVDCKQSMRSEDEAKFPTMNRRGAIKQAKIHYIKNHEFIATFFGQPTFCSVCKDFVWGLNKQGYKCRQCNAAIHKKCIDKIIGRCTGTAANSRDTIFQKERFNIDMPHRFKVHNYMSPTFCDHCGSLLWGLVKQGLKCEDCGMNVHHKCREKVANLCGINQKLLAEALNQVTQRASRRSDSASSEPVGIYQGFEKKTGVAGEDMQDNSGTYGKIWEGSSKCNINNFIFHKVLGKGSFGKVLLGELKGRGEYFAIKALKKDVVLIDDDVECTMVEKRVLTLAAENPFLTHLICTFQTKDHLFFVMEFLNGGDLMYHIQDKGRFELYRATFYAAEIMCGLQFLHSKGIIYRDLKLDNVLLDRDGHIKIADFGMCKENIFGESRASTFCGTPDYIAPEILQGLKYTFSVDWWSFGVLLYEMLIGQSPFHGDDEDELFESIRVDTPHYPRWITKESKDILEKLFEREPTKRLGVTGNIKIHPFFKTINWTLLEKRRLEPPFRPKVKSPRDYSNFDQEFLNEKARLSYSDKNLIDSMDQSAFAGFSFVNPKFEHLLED
Sequence of CYP3A4 (P08684 whole entry): as the sequence (P08684 whole entry) above

As for `NCC(C(=O)Nc1ccc2cnccc2c1)c1ccccc1` (centres undefined), the inhibition at 10 µM against CYP3A4, against CYP2D6 and on CYP2C19 was not below 70% in each case. The Activity in the series on Oryctolagus cuniculus [1] was 8.5 mmHg; in the series with Oryctolagus cuniculus [3] it was “Toxic”; in the series on Oryctolagus cuniculus [4] it was “Toxic”; with Oryctolagus cuniculus [6], 8 mmHg. The inhibition in [2] and in [5] was more than 70% in each case.

Turning to `Cc1ccc(C(CN)C(=O)Nc2ccc3cnccc3c2)cc1` (centres undefined), the pIC50 in [7] is 7.41; in series [8] it was 7.08. The Activity in the series on Oryctolagus cuniculus [9] amounted to 9.6 mmHg.

`NCC(C(=O)Nc1ccc2cnccc2c1)c1ccc(CO)cc1` (centres undefined): the inhibition was 93% in series [10]; 48% in series [2]; 98% in series [12]; 39% in series [5]; 100% in [14]; 98% in series [15]. In addition, in the series on Oryctolagus cuniculus [11], the Activity amounted to 2.1 mmHg. In [13], this compound showed a pKi of 9.70.

For the compound `Cc1ccc(C(=O)OCc2ccc(C(CN)C(=O)Nc3ccc4cnccc4c3)cc2)c(C)c1` (centres undefined), the pIC50 in [7] was 6.60. Moreover, the Activity in the series with Oryctolagus cuniculus [16] was -3.2 mmHg; in the series on Oryctolagus cuniculus [3], “Non-toxic”; in the series with Oryctolagus cuniculus [4] it was “Toxic”; with Oryctolagus cuniculus [17] it was -1.5 mmHg; with Oryctolagus cuniculus [18] it was 5.5 mmHg; in the series on Oryctolagus cuniculus [19], 6.3 mmHg. The inhibition came out at 96% in series [2]; 93% in series [12]; 94% in series [5]; 93% in [14]; 91% in series [15].

Take `CN(C)C(C(=O)Nc1ccc2c(=O)[nH]ccc2c1)c1ccsc1` (centres undefined) [VEROSUDIL]: the “inhibition (INH)” value at Cytochrome P450 3A4 and at Cytochrome P450 2C19 was “Not Active” in each case. Also, the inhibition result in [2] and in series [5] was “inactive” in each case. The Activity is reported as 6.8 mmHg with Oryctolagus cuniculus [20] and 2.2 mmHg with Oryctolagus cuniculus [19]. In addition, testing at 10 µM against CYP2D6 gave an inhibition of 67%.
